Article PMC2822479 (American Journal of Physiology - Endocrinology and …, 2009)
Where a SMILES comes first, the peptide text is derived from it.

Target: human KISS1R (Homo sapiens, UniProt Q969F8)
Assay: Receptor binding assay, competition against [125I]KP-54 in CHO-KISS1R membranes
Details: SEM

Chain of human KISS1R (Q969F8 whole entry): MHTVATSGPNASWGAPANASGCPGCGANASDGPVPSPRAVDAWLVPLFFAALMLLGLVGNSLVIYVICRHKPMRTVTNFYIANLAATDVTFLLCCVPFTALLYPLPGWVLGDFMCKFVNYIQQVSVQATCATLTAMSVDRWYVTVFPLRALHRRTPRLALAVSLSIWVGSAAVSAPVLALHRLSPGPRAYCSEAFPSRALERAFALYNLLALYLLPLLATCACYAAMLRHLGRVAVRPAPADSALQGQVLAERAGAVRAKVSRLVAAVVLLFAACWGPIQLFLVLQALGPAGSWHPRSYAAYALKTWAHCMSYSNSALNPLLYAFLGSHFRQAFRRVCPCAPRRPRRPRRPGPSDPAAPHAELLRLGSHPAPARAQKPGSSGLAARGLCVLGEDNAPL

Compound	IC50
CC(C)C[C@H](NC(=O)CNC(=O)[C@H](Cc1ccccc1)NC(=O)[C@H](CO)NC(=O)[C@H](C)NC(=O)[C@H](Cc1c[nH]c2ccccc12)NC(=O)[C@H](CC(N)=O)NC(=O)[C@@H](N)Cc1ccc(O)cc1)C(=O)N[C@@H](CCCNC(=N)N)C(=O)N[C@@H](Cc1ccccc1)C(N)=O [ANA4] (H-YNWASFGLRF-NH2)	43.5 nM
CC(C)C[C@H](NC(=O)CNC(=O)[C@H](Cc1ccccc1)NC(=O)[C@H](CO)NC(=O)[C@H](CC(N)=O)NC(=O)[C@H](Cc1c[nH]c2ccccc12)NC(=O)[C@H](CC(=O)O)NC(=O)[C@@H](N)Cc1ccc(O)cc1)C(=O)N[C@@H](CCCNC(=N)N)C(=O)N[C@@H](Cc1ccccc1)C(N)=O [ANA12] (H-YDWNSFGLRF-NH2)	29.1 nM
CC(C)C[C@H](NC(=O)[C@H](C)NC(=O)[C@H](Cc1ccccc1)NC(=O)[C@H](CO)NC(=O)[C@H](CC(N)=O)NC(=O)[C@H](Cc1c[nH]c2ccccc12)NC(=O)[C@H](CC(N)=O)NC(=O)[C@@H](N)Cc1ccc(O)cc1)C(=O)N[C@@H](CCCNC(=N)N)C(=O)N[C@@H](Cc1ccccc1)C(N)=O [ANA7] (H-YNWNSFALRF-NH2)	4.6 nM
CC(C)C[C@H](NC(=O)CNC(=O)[C@H](Cc1ccccc1)NC(=O)[C@H](CO)NC(=O)[C@H](CC(=O)O)NC(=O)[C@H](Cc1c[nH]c2ccccc12)NC(=O)[C@H](CC(N)=O)NC(=O)[C@@H](N)Cc1ccc(O)cc1)C(=O)N[C@@H](CCCNC(=N)N)C(=O)N[C@@H](Cc1ccccc1)C(N)=O [ANA13] (H-YNWDSFGLRF-NH2)	140 nM
CC(C)C[C@H](NC(=O)CNC(=O)[C@H](Cc1ccccc1)NC(=O)[C@H](CO)NC(=O)[C@H](CC(N)=O)NC(=O)[C@H](Cc1c[nH]c2ccccc12)NC(=O)[C@H](CC(N)=O)NC(=O)[C@H](C)N)C(=O)N[C@@H](CCCNC(=N)N)C(=O)N[C@@H](Cc1ccccc1)C(N)=O [ANA1] (H-ANWNSFGLRF-NH2)	23.2 nM
CC(C)C[C@H](NC(=O)CNC(=O)[C@H](Cc1ccccc1)NC(=O)[C@H](CO)NC(=O)[C@H](CC(N)=O)NC(=O)[C@H](Cc1c[nH]c2ccccc12)NC(=O)[C@H](CC(N)=O)NC(=O)[C@@H](N)Cc1ccc(O)cc1)C(=O)N[C@@H](C)C(=O)N[C@@H](Cc1ccccc1)C(N)=O [ANA9] (H-YNWNSFGLAF-NH2)	42.3 nM
CC(C)C[C@H](NC(=O)CNC(=O)[C@H](Cc1ccccc1)NC(=O)[C@H](CO)NC(=O)[C@H](CC(N)=O)NC(=O)[C@H](C)NC(=O)[C@H](CC(N)=O)NC(=O)[C@@H](N)Cc1ccc(O)cc1)C(=O)N[C@@H](CCCNC(=N)N)C(=O)N[C@@H](Cc1ccccc1)C(N)=O [ANA3] (H-YNANSFGLRF-NH2)	2.7 nM
CC[C@H](C)[C@H](NC(=O)CNC(=O)[C@H](Cc1ccccc1)NC(=O)[C@H](CO)NC(=O)[C@H](CC(N)=O)NC(=O)[C@H](Cc1c[nH]c2ccccc12)NC(=O)[C@H](CC(N)=O)NC(=O)[C@@H](N)Cc1ccc(O)cc1)C(=O)N[C@@H](CCCNC(=N)N)C(=O)N[C@@H](Cc1ccccc1)C(N)=O [ANA16] (H-YNWNSFGIRF-NH2)	39.9 nM
CC(C)C[C@H](NC(=O)CNC(=O)[C@H](Cc1ccccc1)NC(=O)[C@H](CO)NC(=O)[C@H](CC(N)=O)NC(=O)[C@H](Cc1c[nH]c2ccccc12)NC(=O)[C@H](CC(N)=O)NC(=O)[C@@H](N)Cc1ccc(O)cc1)C(=O)N[C@@H](CCCNC(=N)N)C(=O)N[C@@H](Cc1ccccc1)C(N)=O [KP-10, kisspeptin-10, reference compound]	1 nM
CC(C)C[C@H](NC(=O)CNC(=O)[C@@H](Cc1ccccc1)NC(=O)[C@H](CO)NC(=O)[C@H](CC(N)=O)NC(=O)[C@H](Cc1c[nH]c2ccccc12)NC(=O)[C@H](CC(N)=O)NC(=O)[C@@H](N)Cc1ccc(O)cc1)C(=O)N[C@@H](CCCNC(=N)N)C(=O)N[C@@H](Cc1ccccc1)C(N)=O [ANA20]	253 nM
CC(C)C[C@H](NC(=O)CNC(=O)[C@H](Cc1ccccc1)NC(=O)[C@H](C)NC(=O)[C@H](CC(N)=O)NC(=O)[C@H](Cc1c[nH]c2ccccc12)NC(=O)[C@H](CC(N)=O)NC(=O)[C@@H](N)Cc1ccc(O)cc1)C(=O)N[C@@H](CCCNC(=N)N)C(=O)N[C@@H](Cc1ccccc1)C(N)=O [ANA5] (H-YNWNAFGLRF-NH2)	0.8 nM
CC(C)C[C@H](NC(=O)CNC(=O)[C@H](Cc1ccccc1)NC(=O)[C@H](CO)NC(=O)[C@H](CC(N)=O)NC(=O)[C@H](Cc1c[nH]c2ccccc12)NC(=O)[C@H](CC(N)=O)NC(=O)[C@@H](N)Cc1ccc(O)cc1)C(=O)N[C@@H](CCCNC(=N)N)C(=O)N[C@H](Cc1ccccc1)C(N)=O [ANA21]	447 nM
CC(C)C[C@H](NC(=O)CNC(=O)[C@H](Cc1ccccc1)NC(=O)[C@H](CO)NC(=O)[C@H](CC(N)=O)NC(=O)[C@H](Cc1c[nH]c2ccccc12)NC(=O)[C@H](C)NC(=O)[C@@H](N)Cc1ccc(O)cc1)C(=O)N[C@@H](CCCNC(=N)N)C(=O)N[C@@H](Cc1ccccc1)C(N)=O [ANA2] (H-YAWNSFGLRF-NH2)	145 nM
CC(C)C[C@H](NC(=O)CNC(=O)[C@H](Cc1ccccc1)NC(=O)[C@H](CO)NC(=O)[C@H](CC(N)=O)NC(=O)[C@H](Cc1c[nH]c2ccccc12)NC(=O)[C@H](CC(N)=O)NC(=O)[C@@H](N)Cc1ccc(O)cc1)C(=O)N[C@@H](CCCNC(=N)N)C(=O)N[C@@H](Cc1c[nH]cn1)C(N)=O [ANA18] (H-YNWNSFGLRH-NH2)	378 nM
CC(C)C[C@H](NC(=O)CNC(=O)[C@H](Cc1ccccc1)NC(=O)[C@@H](NC(=O)[C@H](CC(N)=O)NC(=O)[C@H](Cc1c[nH]c2ccccc12)NC(=O)[C@H](CC(N)=O)NC(=O)[C@@H](N)Cc1ccc(O)cc1)[C@@H](C)O)C(=O)N[C@@H](CCCNC(=N)N)C(=O)N[C@@H](Cc1ccccc1)C(N)=O [ANA14] (H-YNWNTFGLRF-NH2)	2.3 nM
CC(C)C[C@H](NC(=O)CNC(=O)[C@H](Cc1ccccc1)NC(=O)[C@H](CO)NC(=O)[C@H](CC(N)=O)NC(=O)[C@H](Cc1c[nH]c2ccccc12)NC(=O)[C@H](CC(N)=O)NC(=O)[C@@H](N)Cc1ccc(O)cc1)C(=O)N[C@@H](CCCCN)C(=O)N[C@@H](Cc1ccccc1)C(N)=O [ANA17] (H-YNWNSFGLKF-NH2)	9.8 nM
CC(C)C[C@H](NC(=O)CNC(=O)[C@H](C)NC(=O)[C@H](CO)NC(=O)[C@H](CC(N)=O)NC(=O)[C@H](Cc1c[nH]c2ccccc12)NC(=O)[C@H](CC(N)=O)NC(=O)[C@@H](N)Cc1ccc(O)cc1)C(=O)N[C@@H](CCCNC(=N)N)C(=O)N[C@@H](Cc1ccccc1)C(N)=O [ANA6] (H-YNWNSAGLRF-NH2)	110 nM
CC(C)C[C@H](NC(=O)CNC(=O)[C@H](Cc1ccccc1)NC(=O)[C@H](CO)NC(=O)[C@H](CC(N)=O)NC(=O)[C@H](Cc1c[nH]c2ccccc12)NC(=O)[C@H](CC(N)=O)NC(=O)[C@@H](N)Cc1ccccc1)C(=O)N[C@@H](CCCNC(=N)N)C(=O)N[C@@H](Cc1ccccc1)C(N)=O [ANA11] (H-FNWNSFGLRF-NH2)	3.5 nM
C[C@H](NC(=O)CNC(=O)[C@H](Cc1ccccc1)NC(=O)[C@H](CO)NC(=O)[C@H](CC(N)=O)NC(=O)[C@H](Cc1c[nH]c2ccccc12)NC(=O)[C@H](CC(N)=O)NC(=O)[C@@H](N)Cc1ccc(O)cc1)C(=O)N[C@@H](CCCNC(=N)N)C(=O)N[C@@H](Cc1ccccc1)C(N)=O [ANA8] (H-YNWNSFGARF-NH2)	77.4 nM
CC(C)C[C@H](NC(=O)CNC(=O)[C@H](Cc1ccccc1)NC(=O)[C@H](CO)NC(=O)[C@H](CC(N)=O)NC(=O)[C@H](Cc1c[nH]c2ccccc12)NC(=O)[C@H](CC(N)=O)NC(=O)[C@H](N)Cc1ccc(O)cc1)C(=O)N[C@@H](CCCNC(=N)N)C(=O)N[C@@H](Cc1ccccc1)C(N)=O [ANA19]	3.6 nM
CC(C)C[C@H](NC(=O)CNC(=O)[C@H](Cc1ccc(O)cc1)NC(=O)[C@H](CO)NC(=O)[C@H](CC(N)=O)NC(=O)[C@H](Cc1c[nH]c2ccccc12)NC(=O)[C@H](CC(N)=O)NC(=O)[C@@H](N)Cc1ccc(O)cc1)C(=O)N[C@@H](CCCNC(=N)N)C(=O)N[C@@H](Cc1ccccc1)C(N)=O [ANA15] (H-YNWNSYGLRF-NH2)	87.5 nM
